Experimental data reported in patent US20250215016A1, “ISOXAZOLE-HETEROCYCLIC DERIVATIVE, PHARMACEUTICAL COMPOSITION AND USE” (SHANGHAI SIMR BIOTECHNOLOGY CO., LTD, priority 2022, published 2025).

Experiments:
[1] = biological target: human α5β3γ2 receptor (α5-GABAA receptor) (Homo sapiens (Human), UniProt P18507+P31644); assay: Radioligand (3H-flunitrazepam) competition binding assay, BZD site; details: 3H-flunitrazepam 1 nM; HEK293 membranes expressing human α5β3γ2
Source text: α, β and γ subunits are essential for the formation of a complete functional GABAA receptor. In this example, HEK293 cell strains stably expressing human α5-GABAA receptor (comprising α5β3γ2 subunit) and α2-GABAA receptor (comprising α2β3γ2 subunit) were constructed and screened, respectively, by liposome transfection method (Felgner, P. L., et al., Proceedings of the National Academy of Sciences, 1987, 84:7413-7417). The specific subunit protein sequences are as follows: α5 subunit (protein sequence can be found in GenBank accession number: NM_000810.3); α2 subunit (protein sequence can be found in GenBank accession number: NM_000807.4); β3 subunit (protein sequence can be found in GenBank accession number: NM_000814.5); γ2 subunit (protein sequence can be found in GenBank accession number: NM_000816.3).
(§1) The above cell lines were subcultured. Amplification of α5β3γ2-HEK293 and α2β3γ2-HEK293 cells was used to test the affinity of the compounds to benzodiazepine site (BZD) of the GABAA receptor. During the passage of α5β3γ2-HEK293 cells, some of the suspended cells were spread on a glass slide pretreated with Poly-D-Lysine for electrophysiological testing.
Flunitrazepam is a non-specific reagent that binds to the BZD site efficiently. The affinity of the compounds to the BZD sites of the human α5β3γ2 and α2β3γ2 receptors can be determined by competing the compound with ^3H-flunitrazepam (isotope ^3H-labeled flunitrazepam) for binding to these two receptors.
Membrane preparation: HEK293 cells stably expressing human α5β3γ2 receptor or α2β3γ2 receptor were collected, suspended in 50 mM Tris-HCl buffer (pH=7.4), homogenized on ice by a homogenizer for 20 seconds 10 times, and centrifuged at 4° C., 1000 g for 10 min. The supernatant was collected, and the above steps were repeated. The supernatant was centrifuged (33800 g; centrifuge purchased from Thermo, rotor model: A27-8×50) at 4° C. for 60 min, and the precipitate was resuspended in Tris buffer (50 mM Tris-HCl, 10 mM MgCl2, 0.5 mM EDTA, 10% glycerol). The precipitate was the cell membrane. Protein content was determined by BCA (Bicinchoninic Acid) method (BCA kit from Pierce (Annoron)). The cell membrane was prepared into 1 ml aliquot and stored at −80° C.
Radioligand competition binding assay: the assay was carried out in a 200 μL system (96-well plate from Agilent) with 100 μL of cell membrane. The concentration of ^3H-flunitazepam (from PerkinElmer, lot: NET567250 UC) was 1 nM and the concentration of test compound was in the range 1×10^−5-10^−6 M. Flumazenil (from Tocris; lot: 1318) was used as a control. 1 μL of 2 mM flumazenil (final concentration 10 μM) was added to the Low signal control well (Low control, LC) and 1 μL of DMSO (from Sigma aldrich, lot: 472301) was added to the High signal control well (High control, HC). The final target membrane protein concentration was 5 μg/well. All test compound sample stocks were 10 mM DMSO solutions. The working concentration of the samples is to dilute all samples with DMSO to 0.2 mM, and then perform 4-fold continuous gradient dilution for a total of 8 concentration gradients. The 96-well plate was sealed with a plate sealing membrane and then incubated on a shaker at room temperature for 1 hour. Meanwhile, GF/C filter plate was soaked with a plate soaking buffer (0.3% PEI, polyethyleneimine, purchased from Sigma aldrich, model: P314, stored at 4° C.) for at least 0.5 hours. After completion of binding incubation, the cells were collected with a cell collector onto the GF/C filter plate and washed four times with a plate washing buffer (50 mM Tris-HCl, pH 7.4, stored at 4° C.). […]

[2] = biological target: α5-GABAA receptor (Homo sapiens (Human), UniProt P18507+P31644); assay: Whole-cell patch clamp electrophysiology, inverse regulation activity in α5β3γ2-HEK293 cells; assay type: cell-based; details: compound 100 nM; GABA 0.05-0.06 μM (about EC7-8); clamped at −60 mV; read-out: Inverse regulation efficiency to α5-GABAA receptor
Source text: α, β and γ subunits are essential for the formation of a complete functional GABAA receptor. […] The specific subunit protein sequences are as follows: α5 subunit (protein sequence can be found in GenBank accession number: NM_000810.3); α2 subunit (protein sequence can be found in GenBank accession number: NM_000807.4); β3 subunit (protein sequence can be found in GenBank accession number: NM_000814.5); γ2 subunit (protein sequence can be found in GenBank accession number: NM_000816.3).
as §1
The inverse regulation activity of the test drugs on α5-GABAA receptor was detected by an electrophysiological method. The specific method was as follows:
Compound concentration setting: the final concentration of the compounds used for compound screening was 100 nM. GABA concentration was 0.05-0.06 μM (about EC7-8). […] The extracellular fluid (ECS) ingredients for electrophysiology were as follows: 150 mM NaCl, 5 mM KCl, 2.5 mM CaCl2, 1 mM MgCl2, 10 mM HEPES and 10 mM glucose (pH 7.4); the electrode internal solution (ICS) formula for electrophysiology was as follows: 140 mM CsCl, 11 mM EGTA, 10 mM HEPES, 2 mM CaCl2, 1 mM MgCl2, 4 mM MgATP, 2 mM TEA (pH 7.3). The above reagents were all purchased from Sigma aldrich. GABA (γ-aminobutyric acid, from sigma aldrich, lot: A5385) powder was prepared into a stock solution with pure water and then diluted in ECS. The compound was first prepared into a 4 mM stock solution with DMSO, and then gradually diluted in corresponding concentrations of GABA-ECS. The solutions were all prepared fresh prior to electrophysiological testing.
Electrophysiological signal acquisition were performed by using EPC 10 amplifier and PatchMaster software (HEKA) or Axon 700 B amplifier and Clampex software (AXON). The recording electrode was made by drawing borosilicate glass (purchased from sutter), and has an electrode resistance of 4˜6 MΩ. Extracellular administration was carried out using ALA-VC-8PG (purchased from ALA, USA) system. A single independently grown cell was selected, and lysis was performed after the glass electrode and the cell forming a good seal, to form a whole cell mode. With the cellular membrane potential clamped at −60 mV, recording was carried out in the Gap-free mode. For the test, extracellular fluid was first applied extracellularly for about 20 seconds. After baseline (Iprebaseline) was stabilized, the extracellular fluid was switched to GABA-ECS. At this time, the current (Igaba) caused by GABA can be detected. At about 20-40 seconds, after the current stabilized, the extracellular fluid was switched to a mixed solution of the compound and GABA-ECS, until the current (Itreatment) caused by both the compound and GABA can be detected. Finally, the solution was switched to the extracellular fluid and the test was terminated after recording for 20-40 seconds.
The experimental results were analyzed using PatchMaster v2x90.1 or PatchMaster v2x90.3 software (EPC 10 amplifier) and Clampex10.6 software (Axon700B amplifier). The current value of each stage was calculated according to the average value of the stabilized current under the corresponding conditions. We defined the control current as Igaba−Iprebaseline, and the current after compound treatment as Itreatment−Iprebaseline. The inverse regulation activity of the compounds is expressed as a percentage and is calculated according to the following formula: Inverse regulation efficiency=[(Itreatment−Igaba)/(Igaba−Iprebaseline)]×100%.

Row | Compound | Ki [1] | inhibition at 0.1 µM [2]
1 | Cc1onc(-c2ccc(F)cc2)c1COc1ccc(-c2nnc3n2CCN(C)C3=O)nn1 [Compound 14, 3-(6-((3-(4-fluorophenyl)-5-methylisoxazol-4-yl)methoxy)pyridazin-3-yl)-7-methyl-6,7-dihydro-[1,2,4]triazolo[4,3-a]pyrazin-8(5H)-one] | 2.5 nM | 49%
2 | Cc1onc(-c2ccc(F)cc2)c1COc1ccc(-c2nnc3n2CCCO3)cn1 [Compound 25, 3-(6-((3-(4-fluorophenyl)-5-methylisoxazol-4-yl)methoxy)pyridin-3-yl)-6,7-dihydro-5H-[1,2,4]triazolo[3,4-b][1,3]oxazine] | 22.1 nM | 50%
3 | Cc1onc(-c2ccc(F)cc2)c1COc1ccc(-c2ncc3n2CCOC3)cn1 [Compound 28, 3-(6-((3-(4-fluorophenyl)-5-methylisoxazol-4-yl)methoxy)pyridin-3-yl)-5,6-dihydro-8H-imidazo[5,1-c][1,4]oxazine] | 32.9 nM | 42%
4 | Cc1onc(-c2ccc(F)cc2)c1COc1cnc(N2CCN3CCNC(=O)[C@@H]3C2)cn1 [Compound 6, (S)-8-(5-((3-(4-fluorophenyl)-5-methylisoxazol-4-yl)methoxy)pyrazin-2-yl) hexahydro-2H-pyrazino[1,2-a]pyrazin-1 (6H)-one] | 103 nM | 16%
5 | CCN1CCn2c(nnc2-c2ccc(OCc3c(-c4ccc(F)cc4)noc3C)nc2)C1=O [Compound 13, 7-ethyl-3-(6-((3-(4-fluorophenyl)-5-methylisoxazol-4-yl)methoxy)pyridin-3-yl)-6,7-dihydro-[1,2,4]triazolo[4,3-a]pyrazin-8(5H)-one] | 12.5 nM | 43%
6 | Cc1onc(-c2ccc(F)cc2)c1COc1ccc(-c2cc3n(c(=O)n2)CC24CC(CN32)C4)cn1 [Compound 39, 3-(6-((3-(4-fluorophenyl)-5-methylisoxazol-4-yl)methoxy)pyridin-3-yl)-7,8-dihydro-1H,6H,9H-7,8a-methanopyrrolo[1′,2′:3,4]imidazo[1,2-c]pyrimidin-1-one] | 6.31 nM | 44%

Continued by falling Ki [1], values first:

Row | Ki [1] | inhibition at 0.1 µM [2] | Compound
7 | 2.44 nM | 39% | Cc1onc(-c2ccc(F)cc2)c1COc1ccc(N2CCn3c(C)nnc3C2)nn1 [Compound 34, 3-(4-fluorophenyl)-5-methyl-4-(((6-(3-methyl-5,6-dihydro-[1,2,4]triazolo[4,3-a]pyrazin-7(8H)-yl)pyridazin-3-yl)oxy)methyl)isoxazole]
8 | 1.2 nM | 38% | Cc1onc(-c2ccc(F)cc2)c1COc1ccc(-c2nnn3c2COCC3)cn1 [Compound 1, 3-(6-((3-(4-fluorophenyl)-5-methylisoxazol-4-yl)methoxy)pyridin-3-yl)-6,7-dihydro-4H-[1,2,3]triazolo[5,1-c][1,4]oxazine]
9 | 0.77 nM | 45% | Cc1onc(-c2ccc(F)cc2)c1COc1ccc(-c2nnc3n2CCS(=O)(=O)C3)nn1 [Compound 29, 3-(6-((3-(4-fluorophenyl)-5-methylisoxazol-4-yl)methoxy)pyridazin-3-yl)-5,6-dihydro-8H-[1,2,4]triazolo[3,4-c][1,4]thiazine 7,7-dioxide]
10 | 0.6 nM | 45% | Cc1onc(-c2ccc(F)cc2)c1COc1ccc(-c2nnn3c2COCC3)nn1 [Compound 11, 3-(6-((3-(4-fluorophenyl)-5-methylisoxazol-4-yl)methoxy)pyridazin-3-yl)-6,7-dihydro-4H-[1,2,3]triazolo[5,1-c][1,4]oxazine]
11 | 0.54 nM | 50% | Cc1onc(-c2ccc(F)cc2)c1COc1ccc(-c2nnc3n2CCC3)nn1 [Compound 22, 4-(((6-(6,7-dihydro-5H-pyrrolo[2,1-c][1,2,4]triazol-3-yl)pyridazin-3-yl)oxy)methyl)-3-(4-fluorophenyl)-5-methylisoxazole]
